One series concerns the target T1, liver TPP II (Mus musculus, UniProt Q64514).
T1 construct: measuring the residual catalytic activity on membranes from brain or from a peripheral organ; from tissue; host or cells: mouse liver (membranes), ex vivo after oral dosing
Kind of series: Inhibitory activity of TPP II ex vivo after administration to a rodent. To be noted: mice, 90 minutes after oral administration of 10 mg/kg. In kind it is in vivo. How it is done: This test is completed by an evaluation of the inhibitory activity of TPP II “ex vivo”, which consists in administering a compound according to the invention to a rodent and in measuring the residual catalytic activity on membranes from brain or from a peripheral organ.
For example, the activity of liver TPP II measured in mice 90 minutes after oral administration of 10 mg/kg of the compound of Example 9 is about 90-100% inhibited.

Series [1] concerns the target membrane-bound tripeptidylpeptidase II (Rattus norvegicus, UniProt Q64560). Kind of series: Measurement of the activity of membrane-bound tripeptidylpeptidase (release of Amc from A-AP-Amc, fluorimetry). The following applies: apparent dissociation constant calculated from the 50% inhibitory concentration and the KM of the substrate (23 μM), rat brain membranes, 50 μM A-AP-Amc.
Protocol: Membranes from rat brain were obtained by centrifugation (200,000×g min) of a homogenate prepared in 10 volumes of 50 mM potassium phosphate buffer, pH 7.4.
After washing thoroughly, the centrifugation pellet is taken up in the buffer containing 10% glycerol and 0.1% Brij 35 in order to obtain a concentration of 25 mg of proteins/ml.
The release of Amc is evaluated by fluorimetry.

A further series relates to endogenous CCK-8. The series can be described thus: Protection of endogenous CCK-8 released from slices of depolarized rat cerebral cortex (radioimmunoassay). In kind it is cell-based. The following applies: concentration of 1 μM. How it is done: At a concentration of 1 μM, it multiplies the recovery of released CCK-8 4-fold (measured by radioimmunoassay).
The nature of series [2]: Anorexigenic (pro-satiety) activity: spontaneous taking of solid food. In kind it is in vivo. To be noted: mice, 10 mg/kg intravenously, 30 to 90 minutes after free access to food, after overnight fasting. On the procedure: In mice, at a dose of 10 mg/kg (intravenously), this compound decreases the spontaneous taking of solid food (“UAR” tablet) by 45%, measured over a period of 30 to 90 minutes after free access to this food (period preceded by fasting overnight and oral administration of 0.2 ml of a semi-liquid meal).

Counter-ions that a name gives are not always drawn. Where a SMILES comes first, the peptide text is derived from it. [ ]: non-standard residue; d: D form. The star is where a group is joined. Oic = O=C(O)[C@@H]1C[C@@H]2CCCC[C@@H]2N1; Tic = O=C(O)[C@@H]1Cc2ccccc2CN1; Abu = CC[C@H](N)C(=O)O; NHBu = CCCCN*; NHPr = CCCN*

Broadly, the melting point is the temperature of the solid-liquid transition.

membrane-bound tripeptidylpeptidase II, sequence (Q64560 whole entry): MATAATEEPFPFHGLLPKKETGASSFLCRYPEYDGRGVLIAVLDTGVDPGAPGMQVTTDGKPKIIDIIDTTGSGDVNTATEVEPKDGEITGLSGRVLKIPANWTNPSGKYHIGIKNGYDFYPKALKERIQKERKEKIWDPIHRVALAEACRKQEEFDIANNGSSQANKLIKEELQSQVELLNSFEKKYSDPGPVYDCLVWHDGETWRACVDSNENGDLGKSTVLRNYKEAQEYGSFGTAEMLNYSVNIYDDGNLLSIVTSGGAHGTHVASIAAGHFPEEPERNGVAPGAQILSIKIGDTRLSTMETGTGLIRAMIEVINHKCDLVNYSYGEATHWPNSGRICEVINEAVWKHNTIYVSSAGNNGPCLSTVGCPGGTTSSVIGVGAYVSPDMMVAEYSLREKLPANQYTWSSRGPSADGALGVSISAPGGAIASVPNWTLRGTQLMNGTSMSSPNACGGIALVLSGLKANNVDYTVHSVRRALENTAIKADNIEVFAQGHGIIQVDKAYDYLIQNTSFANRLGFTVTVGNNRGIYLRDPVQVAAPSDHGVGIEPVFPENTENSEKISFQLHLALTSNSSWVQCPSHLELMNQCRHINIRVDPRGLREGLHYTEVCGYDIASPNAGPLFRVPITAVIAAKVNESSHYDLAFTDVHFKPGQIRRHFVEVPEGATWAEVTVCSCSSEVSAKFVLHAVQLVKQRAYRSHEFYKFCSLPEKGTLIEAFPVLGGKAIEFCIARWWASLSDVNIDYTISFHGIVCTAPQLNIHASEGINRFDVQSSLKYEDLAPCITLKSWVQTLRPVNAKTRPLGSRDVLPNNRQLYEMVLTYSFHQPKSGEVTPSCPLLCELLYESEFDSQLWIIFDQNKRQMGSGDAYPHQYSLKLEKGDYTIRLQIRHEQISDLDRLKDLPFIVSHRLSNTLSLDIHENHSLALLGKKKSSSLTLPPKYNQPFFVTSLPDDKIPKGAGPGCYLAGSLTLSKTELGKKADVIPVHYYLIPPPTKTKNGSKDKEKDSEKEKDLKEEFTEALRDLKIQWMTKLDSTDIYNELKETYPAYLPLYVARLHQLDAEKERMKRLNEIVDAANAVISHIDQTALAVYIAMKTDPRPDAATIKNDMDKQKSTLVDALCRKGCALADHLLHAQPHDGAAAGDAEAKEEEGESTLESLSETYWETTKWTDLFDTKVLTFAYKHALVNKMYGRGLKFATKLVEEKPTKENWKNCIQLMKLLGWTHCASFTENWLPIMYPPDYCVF
T1 sequence (Q64514 whole entry): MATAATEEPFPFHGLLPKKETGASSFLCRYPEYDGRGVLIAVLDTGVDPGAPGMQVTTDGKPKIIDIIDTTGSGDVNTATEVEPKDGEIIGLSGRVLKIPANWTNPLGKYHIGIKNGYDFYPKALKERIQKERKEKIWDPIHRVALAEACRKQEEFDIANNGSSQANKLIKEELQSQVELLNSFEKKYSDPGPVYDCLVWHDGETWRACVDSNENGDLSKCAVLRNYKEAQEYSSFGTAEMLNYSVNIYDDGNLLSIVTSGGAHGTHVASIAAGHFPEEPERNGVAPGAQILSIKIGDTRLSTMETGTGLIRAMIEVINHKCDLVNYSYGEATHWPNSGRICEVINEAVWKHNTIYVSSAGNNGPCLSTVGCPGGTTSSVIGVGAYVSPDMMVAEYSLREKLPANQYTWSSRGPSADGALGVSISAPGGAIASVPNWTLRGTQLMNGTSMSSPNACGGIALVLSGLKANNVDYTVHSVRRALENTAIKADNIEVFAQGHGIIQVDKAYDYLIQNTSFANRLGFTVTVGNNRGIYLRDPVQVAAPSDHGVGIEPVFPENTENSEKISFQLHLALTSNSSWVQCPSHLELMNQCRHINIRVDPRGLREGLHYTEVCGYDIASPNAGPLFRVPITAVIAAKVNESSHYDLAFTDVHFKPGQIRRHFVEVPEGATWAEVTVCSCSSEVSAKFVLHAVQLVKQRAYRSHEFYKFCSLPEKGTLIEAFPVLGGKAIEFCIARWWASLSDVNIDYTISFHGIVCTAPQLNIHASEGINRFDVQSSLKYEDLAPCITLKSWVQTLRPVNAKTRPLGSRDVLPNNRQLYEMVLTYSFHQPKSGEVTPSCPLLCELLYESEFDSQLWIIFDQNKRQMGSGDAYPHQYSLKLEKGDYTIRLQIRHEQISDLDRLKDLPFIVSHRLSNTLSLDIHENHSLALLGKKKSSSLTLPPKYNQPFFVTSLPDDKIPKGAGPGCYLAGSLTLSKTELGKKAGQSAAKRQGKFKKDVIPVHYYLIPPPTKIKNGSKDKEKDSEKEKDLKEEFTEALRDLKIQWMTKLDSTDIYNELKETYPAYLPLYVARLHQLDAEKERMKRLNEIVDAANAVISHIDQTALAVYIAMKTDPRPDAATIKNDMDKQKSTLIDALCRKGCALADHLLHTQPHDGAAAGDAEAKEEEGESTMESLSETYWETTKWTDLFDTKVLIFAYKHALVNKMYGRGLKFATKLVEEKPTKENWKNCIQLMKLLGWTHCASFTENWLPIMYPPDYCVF

On to `CC(C)[C@H](NC(=O)[C@@H]1CCCN1C(=O)[C@H](C)N)B1OC2CC3CC(C3(C)C)C2(C)O1` (stereo partly drawn) [Example 9, L-alanyl-L-prolyl-L-borovaline pinanediol ester], for which, on liver TPP II, the “inhibition of the activity of liver TPP II” value is 90-100%. Besides, in series [1], the Ki is 0.3 nM.

Turning to `CCCCNC(=O)[C@@H]1Cc2ccccc2CN1C(=O)[C@@H](N)CC` (as salt: oxalate) [Example 13, 2-(2(S)-amino-butyryl)-1,2,3,4-tetrahydro-3(S)-isoquinolinecarboxylic Acid n-butylamide] (H-[Abu]-[Tic]-NHBu), the melting point was in the range of 105 to 110 °C.

Molecule `CCCCNC(=O)C1N(C(=O)[C@@H](N)CC)c2ccccc2C1(C)C.O=C(O)C(=O)O` (mixture of isomers) [Example 28, 1-(2(S)-aminobutyryl)-3,3-dimethylindoline-2(R/S)-carboxylic Acid Butylamide Oxalate] yielded a melting point of 127 to 133 °C.

For `CCCNC(=O)[C@@H]1Cc2ccccc2N1C(=O)[C@@H](N)CC` (as salt: oxalate) (hydrate or solvate), the melting point was 130 to 131 °C.

For the molecule `CCCCNC(=O)[C@@H]1C[C@@H]2CCCC[C@@H]2N1C(=O)[C@@H](N)CC` (as salt: salt) [Example 22, 1-(2(S)-aminobutyryl)-2(S)-[(3aS,7aS)-perhydro]indolinecarboxylic Acid N-butylamide] (H-[Abu]-[Oic]-NHBu), the melting point lay in the range of 168 to 169 °C.

`CCCNC(=O)[C@@H]1CCCN1C(=O)[C@@H](N)CC` (as salt: trifluoroacetate) [Example 6, 1-(2(S)-amino-butyryl)-L-proline n-propylamide] (H-[Abu]-Pro-NHPr) yielded a melting point of 46 to 51 °C.

Molecule `CCCCNC(=O)[C@@H]1CCCN1C(=O)[C@@H](N)CC` (as salt: oxalate) [Example 4, 1-(2(S)-amino-butyryl)-L-proline n-butylamide] (H-[Abu]-Pro-NHBu) returned a melting point of 165 to 167 °C.

Turning to `CCCCNC(=O)[C@@H]1Cc2c(OCC)cccc2N1C(=O)[C@@H](N)CC.O=C(O)C(=O)O` [Example 31, 1-(2(S)-aminobutyryl)-4-ethoxyindoline-2(S)-carboxylic Acid Butylamide Oxalate], the melting point is 144.7 to 146.2 °C. In addition, the Ki in series [1] (Ki) is 29 nM.

Molecule `CCCCNC(=O)[C@@H]1Cc2cc(OC)ccc2N1C(=O)[C@H](C)N.O=C(O)C(=O)O` [Example 26, 1-(L-alanyl)-5-methoxyindoline-2(S)-carboxylic Butylamide Oxalate] yielded a melting point of 141 to 143 °C. The Ki in series [1] (Ki) was 7.5 nM.

With `CCCCNC(=O)[C@@H]1C[C@@H]2CCCC[C@@H]2N1C(=O)[C@@H](N)CC` [Example 22, 1-(2(S)-aminobutyryl)-2(S)-[(3aS,7aS)-perhydro]indolinecarboxylic Acid N-butylamide] (H-[Abu]-[Oic]-NHBu), the “recovery of released CCK-8” value in the series with endogenous CCK-8 is 4 fold. Moreover, the “decrease of the spontaneous taking of solid food” value in series [2] is reported as 45%. Further, the Ki in series [1] (Ki) was 560 nM.

`CC[C@H](N)C(=O)N1c2ccccc2C[C@H]1C(=O)NC` (as salt: oxalate) (hydrate or solvate) [Example 16, 1-(2(S)-aminobutyryl)-2(S)-indolinecarboxylic Acid methylamide] returned a melting point of 138 to 139 °C.

In the case of `CCCCCNC(=O)[C@@H]1CCCN1C(=O)[C@@H](N)CC` (as salt: oxalate) [Example 3, 1-(2(S)-aminobutyryl)-L-proline n-pentylamide], the melting point lay within 140 to 141 °C.

`CC[C@H](N)C(=O)N1CCC[C@H]1C(=O)NCC(C)C` (as salt: trifluoroacetate) [Example 7, 1-(2(S)-amino-butyryl)-L-proline isobutylamide] had a melting point of 58 to 61 °C.

With `CCCCNC(=O)[C@@H]1CCCN1C(=O)[C@@H](N)C(C)C` (as salt: oxalate) [Example 8, L-valyl-L-proline n-butylamide] (H-Val-Pro-NHBu), the melting point lay within 165 to 166 °C.

`CC[C@H](N)C(=O)N1CCC[C@H]1C(=O)NCCCSC` (as salt: oxalate) [Example 2, 1-(2(S)-amino-butyryl)-L-proline 3-(methylthio)propylamide]: the melting point lay within 120 to 121 °C.

`CCCCNC(=O)C1Cc2c(OC)cccc2N1C(=O)[C@@H](N)CC.O=C(O)C(=O)O` (mixture of isomers) [Example 27, 1-(2(S)-aminobutyryl)-4-methoxyindoline-2(R/S)-carboxylic Acid Butylamide Oxalate] had a melting point of 117 to 119 °C.

As to `CCCCNC(=O)[C@@H]1Cc2cc(O)ccc2N1C(=O)[C@@H](N)CC.O=C(O)C(=O)O` [Example 33, 1-(2(S)-aminobutyryl)-5-hydroxyindoline-2(S)-carboxylic Acid Butylamide Oxalate], the melting point was in the range of 156.5 to 158 °C. The Ki in series [1] (Ki) was 6.6 nM.

The values are drawn from patent US6403561B1, “Tripeptidylpeptidase inhibitors” (Institut National de la Sante et de la Recherche Medicale …, priority 1998, dated 2002).
